Measurements published in PubChem BioAssay AID248 (DTP/NCI, 2004).
Inconclusive results and toxic doses are left out. Cut-off read from the data, not from the text of the source: active = T/C of 150% or more; inactive = T/C below 125%.

Tested on: L1210 leukemia ip in BDF1 mice, survival T/C
Assay: NCI In Vivo Anticancer Drug Screen. Data for tumor model L1210 Leukemia (intraperitoneal) in B6D2F1 (BDF1) mice
Conditions: endpoint: mean survival time, higher = longer survival
Outline: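 Antitumor effect is assessed in tumor-bearing animals. Survival in the compound arm is compared with a vehicle-dosed control arm and expressed as their quotient.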

[1] = dose: 100.0 mg/kg/injection, schedule: Q01DX001 (ip), vehicle: carboxymethylcellulose (CMC)
[2] = dose: 200.0 mg/kg/injection, schedule: Q01DX001 (ip), vehicle: carboxymethylcellulose (CMC)
[3] = dose: 400.0 mg/kg/injection, schedule: Q01DX001 (ip), vehicle: carboxymethylcellulose (CMC)
[4] = dose: 100.0 mg/kg/injection, schedule: Q01DX009 (ip), vehicle: Klucel (hydroxypropylcellulose) (HPC)
[5] = dose: 200.0 mg/kg/injection, schedule: Q01DX009 (ip), vehicle: Klucel (hydroxypropylcellulose) (HPC)
[6] = dose: 400.0 mg/kg/injection, schedule: Q01DX009 (ip), vehicle: Klucel (hydroxypropylcellulose) (HPC)
[7] = dose: 100.0 mg/kg/injection, schedule: Q04DX003 (ip), vehicle: saline with Tween-80
[8] = dose: 200.0 mg/kg/injection, schedule: Q04DX003 (ip), vehicle: saline with Tween-80
[9] = dose: 400.0 mg/kg/injection, schedule: Q04DX003 (ip), vehicle: saline with Tween-80
[10] = dose: 25.0 mg/kg/injection, schedule: Q01DX009 (ip), vehicle: saline
[11] = dose: 50.0 mg/kg/injection, schedule: Q01DX009 (ip), vehicle: saline
[12] = dose: 100.0 mg/kg/injection, schedule: Q01DX009 (ip), vehicle: saline
[13] = dose: 100.0 mg/kg/injection, schedule: Q04DX002 (ip), vehicle: saline
[14] = dose: 200.0 mg/kg/injection, schedule: Q04DX002 (ip), vehicle: saline
[15] = dose: 100.0 mg/kg/injection, schedule: Q01DX001 (ip), vehicle: saline
[16] = dose: 200.0 mg/kg/injection, schedule: Q01DX001 (ip), vehicle: saline
[17] = dose: 400.0 mg/kg/injection, schedule: Q01DX001 (ip), vehicle: saline
[18] = dose: 100.0 mg/kg/injection, schedule: Q04DX003 (ip), vehicle: Klucel (hydroxypropylcellulose) (HPC)
[19] = dose: 200.0 mg/kg/injection, schedule: Q04DX003 (ip), vehicle: Klucel (hydroxypropylcellulose) (HPC)

Measured: T/C

O=c1[nH]nc(S(=O)(=O)c2ccccc2)c(=O)[nH]1
inactive: [1] 95 % of control | [2] 95 % of control | [3] 95 % of control

N#Cc1cnn2c(=O)[nH]cnc12
inactive: dose: 100.0 mg/kg/injection, schedule: Q01DX009 (ip), vehicle: saline sonified 95 % of control | dose: 100.0 mg/kg/injection, schedule: Q04DX003 (ip), vehicle: saline sonified 93 % of control | dose: 200.0 mg/kg/injection, schedule: Q01DX009 (ip), vehicle: saline sonified 91 % of control | dose: 200.0 mg/kg/injection, schedule: Q04DX003 (ip), vehicle: saline sonified 101 % of control | dose: 400.0 mg/kg/injection, schedule: Q04DX003 (ip), vehicle: saline sonified 95 % of control

O=C(/C=C/c1cccc(Br)c1)c1ccc(Cl)cc1
inactive: dose: 50.0 mg/kg/injection, schedule: Q01DX009 (ip), vehicle: other 107 % of control | dose: 100.0 mg/kg/injection, schedule: Q01DX009 (ip), vehicle: other 92 % of control | dose: 100.0 mg/kg/injection, schedule: Q04DX003 (ip), vehicle: other 89 % of control | dose: 200.0 mg/kg/injection, schedule: Q01DX009 (ip), vehicle: other 96 % of control | dose: 200.0 mg/kg/injection, schedule: Q04DX003 (ip), vehicle: other 100 % of control

CCCc1nc2ccccc2c(=O)n1/N=C/c1ccccc1O
inactive: [4] 97 % of control | [5] 102 % of control | [6] 103 % of control

COc1ccc(C2OC23CC(C)(C)c2ccccc2C3=O)cc1 (stereo unspecified)
inactive: [7] 93 % of control | [8] 89 % of control | [9] 94 % of control

CCOC(=O)c1ncc(Cl)cc1N
inactive: dose: 100.0 mg/kg/injection, schedule: Q01DX001 (ip), vehicle: Klucel (hydroxypropylcellulose) (HPC) 106 % of control | dose: 200.0 mg/kg/injection, schedule: Q01DX001 (ip), vehicle: Klucel (hydroxypropylcellulose) (HPC) 108 % of control

CNC(=O)Nc1ccc(C(=O)OCC(C)C)cc1
inactive: [4] 104 % of control | [5] 115 % of control | [6] 104 % of control

CCN(CC)CCCC(C)Nc1ccc(O)c2c1C(=O)c1ccccc1C2=O (stereo unspecified)
inactive: [10] 100 % of control | [11] 93 % of control | [12] 104 % of control | [13] 100 % of control | [14] 102 % of control

COc1cc2cc(C(=O)O)sc2cc1OC
inactive: [15] 91 % of control | [16] 91 % of control | [17] 91 % of control

COc1cccc(NC(=O)Nc2cccc(Cl)c2)c1
inactive: [4] 94 % of control | [6] 95 % of control

O=C(O)C(CCC(C(=O)O)c1ccccc1)c1ccccc1 (stereo unspecified)
inactive: dose: 75.0 mg/kg/injection, schedule: Q01DX001 (ip), vehicle: other 110 % of control | dose: 150.0 mg/kg/injection, schedule: Q01DX001 (ip), vehicle: other 116 % of control | dose: 300.0 mg/kg/injection, schedule: Q01DX001 (ip), vehicle: other 95 % of control

CN1C2CC(=O)CC1C(O)C2 (stereo unspecified)
inactive: [15] 103 % of control | [17] 90 % of control

O=C(O)c1ccc2[nH]c(=O)c(=O)[nH]c2c1
inactive: [18] 96 % of control | [19] 101 % of control | dose: 400.0 mg/kg/injection, schedule: Q04DX003 (ip), vehicle: Klucel (hydroxypropylcellulose) (HPC) 102 % of control

COC(=O)c1cc(Cl)cc(NC(C)=O)c1Cl
inactive: dose: 100.0 mg/kg/injection, schedule: Q04DX002 (ip), vehicle: Klucel (hydroxypropylcellulose) (HPC) 97 % of control | dose: 200.0 mg/kg/injection, schedule: Q04DX002 (ip), vehicle: Klucel (hydroxypropylcellulose) (HPC) 97 % of control | dose: 400.0 mg/kg/injection, schedule: Q04DX002 (ip), vehicle: Klucel (hydroxypropylcellulose) (HPC) 97 % of control

CC(C)(C)C(=O)CS(=O)(=O)C(Br)C(=O)C(C)(C)C (stereo unspecified)
inactive: [18] 100 % of control

C[N+]1(CC2CO2)CCOCC1 (stereo unspecified)
inactive: dose: 75.0 mg/kg/injection, schedule: Q01DX001 (ip), vehicle: saline 109 % of control | dose: 150.0 mg/kg/injection, schedule: Q01DX001 (ip), vehicle: saline 106 % of control | dose: 300.0 mg/kg/injection, schedule: Q01DX001 (ip), vehicle: saline 96 % of control

NNC(=O)C1CC2C=CCC(C2)C1 (stereo unspecified)
inactive: dose: 100.0 mg/kg/injection, schedule: Q01DX001 (ip), vehicle: saline with Tween-80 98 % of control | dose: 200.0 mg/kg/injection, schedule: Q01DX001 (ip), vehicle: saline with Tween-80 92 % of control

COc1ccc(C2(CO)OC(CO)C(O)C2O)cc1 (stereo unspecified)
inactive: dose: 50.0 mg/kg/injection, schedule: Q01DX001 (ip), vehicle: saline 105 % of control | [15] 103 % of control | [16] 97 % of control | [17] 94 % of control

CCOC(=O)c1cc(=O)c2c(ccc3ccccc32)[nH]1
inactive: [18] 94 % of control | [19] 93 % of control

CC(=O)OCCC/C(=C\c1c2ccccc2cc2ccccc12)[N+](=O)[O-]
inactive: [1] 94 % of control | [2] 94 % of control | [3] 96 % of control

Cc1cccc(/C=N\OCc2ccccc2)n1
inactive: [7] 98 % of control | [8] 98 % of control | [9] 98 % of control

CC/C=C(\CCC)CCCC
inactive: dose: 100.0 mg/kg/injection, schedule: Q04DX002 (ip), vehicle: saline with Tween-80 94 % of control | dose: 200.0 mg/kg/injection, schedule: Q04DX002 (ip), vehicle: saline with Tween-80 97 % of control | dose: 400.0 mg/kg/injection, schedule: Q04DX002 (ip), vehicle: saline with Tween-80 94 % of control

CN(C)CC(=O)NCCCCCCCCCCNC(=O)CN(C)C
inactive: dose: 10.0 mg/kg/injection, schedule: Q01DX Z (ip), vehicle: saline 88 % of control | dose: 30.0 mg/kg/injection, schedule: Q01DX Z (ip), vehicle: saline 96 % of control | dose: 100.0 mg/kg/injection, schedule: Q01DX Z (ip), vehicle: saline 97 % of control | dose: 300.0 mg/kg/injection, schedule: Q01DX Z (ip), vehicle: saline 102 % of control

Oc1ccc(N=Cc2c(O)ccc3ccccc23)cc1
inactive: dose: 200.0 mg/kg/injection, schedule: Q01DX001 (ip), vehicle: other 90 % of control | dose: 400.0 mg/kg/injection, schedule: Q01DX001 (ip), vehicle: other 91 % of control

O=C(CNC(=O)c1ccccc1)N/N=C/c1cccc2ccccc12
inactive: dose: 100.0 mg/kg/injection, schedule: Q01DX009 (ip), vehicle: saline with Tween-80 89 % of control | dose: 200.0 mg/kg/injection, schedule: Q01DX009 (ip), vehicle: saline with Tween-80 94 % of control | dose: 400.0 mg/kg/injection, schedule: Q01DX009 (ip), vehicle: saline with Tween-80 94 % of control

CCOC(=O)N(OC(C)=O)P(=O)(N1CC1(C)C)N1CC1(C)C (stereo unspecified)
inactive: [13] 100 % of control | [14] 123 % of control

CC1(c2cccs2)C(=O)N(Cl)C(=O)N1Cl (stereo unspecified)
inactive: [10] 110 % of control | [11] 106 % of control | [12] 104 % of control | dose: 100.0 mg/kg/injection, schedule: Q04DX003 (ip), vehicle: saline 96 % of control
